What was measured:
[1] = tested on: Ba/F3 Parental; assay: Ba/F3 viability assay (CellTiter-Glo), parental; assay type: cell-based; details: Mus musculus, BaF3, anti-proliferation
Summary of the method: (§1)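 Cells are exposed to test compounds, and viability is then read to gauge inhibition of proliferation.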

[2] = target: Ba/F3 EGFR-Del19/C797S (Homo sapiens, UniProt P00533, C797S, cells depend on it, form not given); assay: Ba/F3 viability assay (CellTiter-Glo), DC; assay type: cell-based; details: anti-proliferation, read-out: BaF3 DC IC50
Sequence of Ba/F3 EGFR-Del19/C797S (P00533 with tags, fused parts or gaps DEL746-750/C797S, form open): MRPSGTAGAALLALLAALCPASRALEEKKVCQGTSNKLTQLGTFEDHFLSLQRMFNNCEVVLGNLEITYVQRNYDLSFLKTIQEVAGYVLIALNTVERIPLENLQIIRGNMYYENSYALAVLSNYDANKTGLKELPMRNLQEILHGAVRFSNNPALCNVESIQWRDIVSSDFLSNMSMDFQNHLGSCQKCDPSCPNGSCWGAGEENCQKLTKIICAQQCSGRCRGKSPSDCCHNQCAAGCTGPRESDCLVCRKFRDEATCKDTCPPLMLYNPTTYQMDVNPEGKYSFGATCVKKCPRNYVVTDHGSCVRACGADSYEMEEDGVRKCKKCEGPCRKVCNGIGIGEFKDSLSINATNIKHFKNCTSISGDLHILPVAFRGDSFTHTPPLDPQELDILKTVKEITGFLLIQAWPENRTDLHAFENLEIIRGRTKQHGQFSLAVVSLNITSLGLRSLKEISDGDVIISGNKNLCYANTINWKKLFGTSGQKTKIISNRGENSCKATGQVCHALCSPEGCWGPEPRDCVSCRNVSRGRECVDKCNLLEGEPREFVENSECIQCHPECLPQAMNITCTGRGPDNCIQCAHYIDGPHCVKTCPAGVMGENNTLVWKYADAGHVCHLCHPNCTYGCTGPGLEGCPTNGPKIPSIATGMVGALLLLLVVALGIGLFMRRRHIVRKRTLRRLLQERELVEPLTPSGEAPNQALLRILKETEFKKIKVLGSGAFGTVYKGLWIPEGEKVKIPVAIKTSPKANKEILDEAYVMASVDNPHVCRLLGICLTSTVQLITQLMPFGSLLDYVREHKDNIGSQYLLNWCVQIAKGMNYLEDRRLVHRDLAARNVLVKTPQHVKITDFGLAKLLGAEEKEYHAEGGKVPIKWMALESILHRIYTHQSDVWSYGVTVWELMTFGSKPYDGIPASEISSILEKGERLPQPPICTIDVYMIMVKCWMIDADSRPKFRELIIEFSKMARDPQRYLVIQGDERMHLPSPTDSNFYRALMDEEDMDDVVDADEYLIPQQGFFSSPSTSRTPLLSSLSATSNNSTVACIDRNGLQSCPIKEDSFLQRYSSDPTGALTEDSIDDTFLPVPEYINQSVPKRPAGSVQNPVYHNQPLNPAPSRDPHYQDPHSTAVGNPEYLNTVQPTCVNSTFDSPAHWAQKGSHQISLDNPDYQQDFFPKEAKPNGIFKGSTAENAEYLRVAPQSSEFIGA
Summary of the method: as §1

[3] = target: EGFR^L858R/T790M/C^797S (Homo sapiens, UniProt P00533, C797S/L858R/T790M); assay: in vitro kinase assay (HTRF KinEASE-TK kit), LTC; assay type: biochemical; details: kinase inhibition
Text: (§2) Assays using an in vitro kinase assay kit (HTRF KinEASE-TK kit) can be used to study the inhibitory activity of compounds described herein with respect to EGFR mutants such as EGFR^L858R, EGFR^L58R/T790M, and EGFR^L858R/T790M/C^797S.

[4] = target: EGFR^L858R (Homo sapiens, UniProt P00533, L858R); assay: in vitro kinase assay (HTRF KinEASE-TK kit), L; assay type: biochemical; details: kinase inhibition
Sequence of EGFR^L858R (P00533 25-1210 L858R): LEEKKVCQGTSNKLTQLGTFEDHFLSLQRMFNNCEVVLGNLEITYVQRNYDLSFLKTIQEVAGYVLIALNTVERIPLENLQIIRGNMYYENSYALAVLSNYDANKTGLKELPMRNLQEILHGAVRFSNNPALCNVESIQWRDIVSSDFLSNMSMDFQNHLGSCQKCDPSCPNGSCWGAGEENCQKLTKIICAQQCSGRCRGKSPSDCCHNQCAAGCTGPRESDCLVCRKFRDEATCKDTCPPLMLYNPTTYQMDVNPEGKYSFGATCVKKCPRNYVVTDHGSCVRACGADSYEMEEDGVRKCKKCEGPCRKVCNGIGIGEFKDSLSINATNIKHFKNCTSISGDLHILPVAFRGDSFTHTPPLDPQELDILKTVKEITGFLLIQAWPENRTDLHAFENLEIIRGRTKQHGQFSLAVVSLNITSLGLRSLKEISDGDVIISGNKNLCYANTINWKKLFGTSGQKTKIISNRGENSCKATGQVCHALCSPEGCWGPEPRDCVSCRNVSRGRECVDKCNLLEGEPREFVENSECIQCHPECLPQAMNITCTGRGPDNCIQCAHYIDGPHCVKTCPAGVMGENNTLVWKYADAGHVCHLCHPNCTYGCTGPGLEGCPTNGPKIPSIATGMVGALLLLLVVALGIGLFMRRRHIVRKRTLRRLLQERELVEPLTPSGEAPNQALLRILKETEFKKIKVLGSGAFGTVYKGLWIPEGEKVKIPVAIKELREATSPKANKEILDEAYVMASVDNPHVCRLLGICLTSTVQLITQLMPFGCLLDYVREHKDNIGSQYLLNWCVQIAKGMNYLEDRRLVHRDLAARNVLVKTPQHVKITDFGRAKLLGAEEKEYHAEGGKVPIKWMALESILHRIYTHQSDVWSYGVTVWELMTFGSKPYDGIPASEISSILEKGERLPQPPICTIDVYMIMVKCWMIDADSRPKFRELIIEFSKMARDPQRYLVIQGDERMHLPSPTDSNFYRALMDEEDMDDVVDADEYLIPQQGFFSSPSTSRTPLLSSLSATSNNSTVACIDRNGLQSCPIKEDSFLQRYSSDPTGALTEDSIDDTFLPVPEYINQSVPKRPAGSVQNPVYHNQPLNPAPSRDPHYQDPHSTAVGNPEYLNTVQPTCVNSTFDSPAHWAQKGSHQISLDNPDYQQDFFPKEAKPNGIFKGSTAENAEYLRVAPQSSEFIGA
Text: as §2

[5] = target: Ba/F3 EGFR-Del19/T790M/C797S (Homo sapiens, UniProt P00533, T790M/C797S, cells depend on it, form not given); assay: Ba/F3 viability assay (CellTiter-Glo), DTC; assay type: cell-based; details: anti-proliferation, read-out: BaF3 DTC IC50
Sequence of Ba/F3 EGFR-Del19/T790M/C797S (P00533 with tags, fused parts or gaps DEL746-750/T790M/C797S, form open): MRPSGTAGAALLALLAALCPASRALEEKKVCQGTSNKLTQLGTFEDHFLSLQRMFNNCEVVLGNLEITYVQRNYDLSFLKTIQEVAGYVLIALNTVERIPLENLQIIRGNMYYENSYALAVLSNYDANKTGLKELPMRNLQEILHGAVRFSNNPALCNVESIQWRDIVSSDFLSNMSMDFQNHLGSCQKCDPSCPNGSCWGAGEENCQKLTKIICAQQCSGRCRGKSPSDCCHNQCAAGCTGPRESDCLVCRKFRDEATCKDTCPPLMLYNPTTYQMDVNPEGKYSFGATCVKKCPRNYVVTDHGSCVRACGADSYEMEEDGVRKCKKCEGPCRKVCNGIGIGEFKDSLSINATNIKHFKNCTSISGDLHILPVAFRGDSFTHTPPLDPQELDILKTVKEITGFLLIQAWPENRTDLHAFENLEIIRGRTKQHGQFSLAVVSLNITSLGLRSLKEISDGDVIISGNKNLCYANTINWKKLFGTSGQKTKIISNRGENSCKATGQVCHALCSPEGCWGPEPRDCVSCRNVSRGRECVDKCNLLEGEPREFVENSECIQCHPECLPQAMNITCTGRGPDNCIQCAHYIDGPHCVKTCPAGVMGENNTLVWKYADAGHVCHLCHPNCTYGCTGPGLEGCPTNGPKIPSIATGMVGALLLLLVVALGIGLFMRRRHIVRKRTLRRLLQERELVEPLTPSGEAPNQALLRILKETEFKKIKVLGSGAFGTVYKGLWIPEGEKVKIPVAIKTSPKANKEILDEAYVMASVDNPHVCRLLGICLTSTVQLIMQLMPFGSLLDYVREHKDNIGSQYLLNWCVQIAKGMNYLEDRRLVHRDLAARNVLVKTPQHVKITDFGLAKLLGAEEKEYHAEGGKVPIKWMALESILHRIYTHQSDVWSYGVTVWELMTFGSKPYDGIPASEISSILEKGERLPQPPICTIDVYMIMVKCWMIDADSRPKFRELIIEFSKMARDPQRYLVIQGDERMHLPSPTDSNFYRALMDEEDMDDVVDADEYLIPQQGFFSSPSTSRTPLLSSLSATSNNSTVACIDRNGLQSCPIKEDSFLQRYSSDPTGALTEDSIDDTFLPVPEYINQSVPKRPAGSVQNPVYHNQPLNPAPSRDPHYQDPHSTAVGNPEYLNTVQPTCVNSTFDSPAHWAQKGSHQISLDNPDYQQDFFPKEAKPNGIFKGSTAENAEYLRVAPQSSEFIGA
Summary of the method: as §1

[6] = target: Ba/F3 EGFR-Del19/T790M (Homo sapiens, UniProt P00533, T790M, cells depend on it, form not given); assay: Ba/F3 viability assay (CellTiter-Glo), DT; assay type: cell-based; details: anti-proliferation, read-out: BaF3 DT IC50
Summary of the method: as §1

[7] = target: EGFR^L58R/T790M (Homo sapiens, UniProt P00533, L858R/T790M); assay: in vitro kinase assay (HTRF KinEASE-TK kit), LT; assay type: biochemical; details: kinase inhibition
Sequence of EGFR^L58R/T790M (P00533 25-1210 T790M/L858R): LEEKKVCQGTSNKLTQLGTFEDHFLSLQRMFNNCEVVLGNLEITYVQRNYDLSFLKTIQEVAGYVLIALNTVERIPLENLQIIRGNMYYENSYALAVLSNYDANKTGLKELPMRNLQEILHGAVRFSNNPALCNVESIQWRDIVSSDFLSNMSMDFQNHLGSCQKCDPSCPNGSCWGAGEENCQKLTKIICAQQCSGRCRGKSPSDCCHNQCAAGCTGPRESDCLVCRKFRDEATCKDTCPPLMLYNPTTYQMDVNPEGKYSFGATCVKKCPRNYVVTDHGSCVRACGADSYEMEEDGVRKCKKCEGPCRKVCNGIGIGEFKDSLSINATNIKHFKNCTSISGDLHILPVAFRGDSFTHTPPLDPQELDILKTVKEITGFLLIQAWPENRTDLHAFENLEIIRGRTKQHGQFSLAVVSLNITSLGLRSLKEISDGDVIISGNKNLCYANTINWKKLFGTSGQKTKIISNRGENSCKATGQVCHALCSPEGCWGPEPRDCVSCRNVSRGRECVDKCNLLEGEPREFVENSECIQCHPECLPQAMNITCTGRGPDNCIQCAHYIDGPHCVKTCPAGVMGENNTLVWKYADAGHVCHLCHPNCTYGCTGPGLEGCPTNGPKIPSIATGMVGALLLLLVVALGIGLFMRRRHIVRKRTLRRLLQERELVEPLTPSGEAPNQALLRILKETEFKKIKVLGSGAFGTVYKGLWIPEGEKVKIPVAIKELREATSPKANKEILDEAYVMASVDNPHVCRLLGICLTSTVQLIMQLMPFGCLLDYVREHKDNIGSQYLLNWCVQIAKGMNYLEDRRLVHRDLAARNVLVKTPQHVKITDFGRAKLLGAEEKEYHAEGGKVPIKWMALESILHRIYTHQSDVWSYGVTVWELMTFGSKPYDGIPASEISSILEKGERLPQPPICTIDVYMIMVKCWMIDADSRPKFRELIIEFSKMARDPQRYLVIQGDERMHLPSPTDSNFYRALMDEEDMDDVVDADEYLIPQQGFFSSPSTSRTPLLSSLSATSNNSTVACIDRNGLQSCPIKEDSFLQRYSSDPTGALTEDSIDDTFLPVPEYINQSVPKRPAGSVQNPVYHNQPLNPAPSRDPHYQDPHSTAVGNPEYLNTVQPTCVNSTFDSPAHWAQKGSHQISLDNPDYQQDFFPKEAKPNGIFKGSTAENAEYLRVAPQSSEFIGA
Text: as §2

IC50 [3] [nM]	IC50 [4] [nM]	IC50 [7] [nM]	Structure (SMILES)	IC50 [1] [nM]	GI50 [2] [nM]	GI50 [5] [nM]	GI50 [6] [nM]
< 10	< 10	< 10	C[C@H]1CCOc2c(cnn2C)-c2nccc(n2)Nc2cc3c(cn2)c(-c2cccc(OCCN4CCOCC4)c2)nn31 [(145), (16S)-11,16-dimethyl-19-[3-(2-morpholinoethoxy)phenyl]-13-oxa-2,6,10,11,17,18,22,25-octazapentacyclo[15.5.2.1^3,7.0^8,12.0^20,24]pentacosa-1(22),3,5,7(25),8(12),9,18,20,23-nonaene]	100 to 1000	10 to 100	< 10	< 10
< 10	10 to 100	< 10	CC1CCOc2c(cnn2CC2CC2)-c2nccc(n2)Nc2cc3c(cn2)c(N2CCC2)nn31 (centres unmarked) [(2)]	100 to 1000	10 to 100	10 to 100	10 to 100
< 10	100 to 1000	< 10	Cn1ncc2c1OCCC(C)(C)n1nc(N3CCC3)c3cnc(cc31)Nc1ccnc-2n1 [(4), 19-(azetidin-1-yl)-11,16,16-trimethyl-13-oxa-2,6,10,11,17,18,22,25-octazapentacyclo[15.5.2.1^3,7.0^8,12.0^20,24]pentacosa-1(22),3,5,7(25),8(12),9,18,20,23-nonaene]	≥ 1000	100 to 1000	100 to 1000	100 to 1000
< 10	< 10	< 10	C[C@H]1CCOc2c(cnn2C)-c2nccc(n2)Nc2cc3c(cn2)c(-c2cccc(N4CCC(O)CC4)c2)nn31 [(111)]	100 to 1000	10 to 100	< 10	< 10
< 10	10 to 100	< 10	CC1CCOc2c(cnn2C)-c2nccc(n2)Nc2cc3c(cn2)c(-c2cnn(C4CC4)c2)nn31 (centres unmarked) [(64)]	100 to 1000	10 to 100	10 to 100	10 to 100
< 10	10 to 100	< 10	CC1CCCOc2c(cnn2C)-c2nccc(n2)Nc2cc3c(cn2)c(-c2ccc(CN4CCN(C5CC5)CC4)o2)nn31 (centres unmarked) [(87)]	100 to 1000	10 to 100	< 10	10 to 100
< 10	10 to 100	< 10	Cc1ccc(-c2nn3c4cc(ncc24)Nc2ccnc(n2)-c2cnn(C)c2OCC[C@@H]3C)n1C [(150)]	≥ 1000	10 to 100	10 to 100	10 to 100
< 10	10 to 100	< 10	C[C@H]1CCOc2c(cnn2C)-c2nccc(n2)Nc2cc3c(cn2)c(-c2ccncc2)nn31 [(100)]	100 to 1000	10 to 100	10 to 100	10 to 100
< 10	10 to 100	< 10	CN1CCN(CC2CCN(c3nn4c5cc(ncc35)Nc3ccnc(n3)-c3cnn(C)c3OCCC4)C2)CC1 (centres unmarked) [(57)]	100 to 1000	10 to 100	10 to 100	10 to 100
< 10	< 10	< 10	C[C@H]1CCOc2c(cnn2C)-c2nccc(n2)Nc2cc3c(cn2)c(-c2cc(CN4CCN(C5CC5)CC4)n(C)c2)nn31 [(147)]	100 to 1000	< 10	< 10	< 10
< 10	< 10	< 10	C[C@H]1CCOc2c(cnn2C)-c2nccc(n2)Nc2cc3c(cn2)c(-c2cc(CN4CCOCC4)n(C)n2)nn31 [(105)]	≥ 1000	10 to 100	< 10	< 10

From patent publication US20230148005A1, “MACROCYCLIC COMPOUNDS AND USES THEREOF” (THESEUS PHARMACEUTICALS, INC., priority 2020, published 2023)
